Assays:
[1] = biological target: Ribosomal protein S6 kinase beta-1 (Homo sapiens) (UniProt P23443); experiment: Inhibition of human RPS6KB1 at 18.6 nM by HotSpot assay relative to control
[2] = biological target: T1, Serine/threonine-protein kinase 17A (Homo sapiens) (UniProt Q9UEE5); experiment: Inhibition of human DRAK1 at 18.6 nM by HotSpot assay relative to control
T1 sequence (whole entry): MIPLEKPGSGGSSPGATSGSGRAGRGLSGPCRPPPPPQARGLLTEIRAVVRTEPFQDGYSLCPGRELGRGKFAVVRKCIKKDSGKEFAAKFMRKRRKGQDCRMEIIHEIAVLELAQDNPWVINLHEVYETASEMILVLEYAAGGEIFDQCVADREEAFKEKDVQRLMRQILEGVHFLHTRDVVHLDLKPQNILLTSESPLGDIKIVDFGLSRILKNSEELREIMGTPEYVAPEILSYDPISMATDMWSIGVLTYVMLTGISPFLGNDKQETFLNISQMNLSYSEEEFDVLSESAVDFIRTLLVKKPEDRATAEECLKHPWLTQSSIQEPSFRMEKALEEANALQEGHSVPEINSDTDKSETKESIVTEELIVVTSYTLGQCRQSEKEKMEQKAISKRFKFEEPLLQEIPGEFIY

[3] = biological target: T2, Serine/threonine-protein kinase Nek1 (Homo sapiens) (UniProt Q96PY6); experiment: Inhibition of human NEK1 at 18.6 nM by HotSpot assay relative to control
T2 sequence (whole entry): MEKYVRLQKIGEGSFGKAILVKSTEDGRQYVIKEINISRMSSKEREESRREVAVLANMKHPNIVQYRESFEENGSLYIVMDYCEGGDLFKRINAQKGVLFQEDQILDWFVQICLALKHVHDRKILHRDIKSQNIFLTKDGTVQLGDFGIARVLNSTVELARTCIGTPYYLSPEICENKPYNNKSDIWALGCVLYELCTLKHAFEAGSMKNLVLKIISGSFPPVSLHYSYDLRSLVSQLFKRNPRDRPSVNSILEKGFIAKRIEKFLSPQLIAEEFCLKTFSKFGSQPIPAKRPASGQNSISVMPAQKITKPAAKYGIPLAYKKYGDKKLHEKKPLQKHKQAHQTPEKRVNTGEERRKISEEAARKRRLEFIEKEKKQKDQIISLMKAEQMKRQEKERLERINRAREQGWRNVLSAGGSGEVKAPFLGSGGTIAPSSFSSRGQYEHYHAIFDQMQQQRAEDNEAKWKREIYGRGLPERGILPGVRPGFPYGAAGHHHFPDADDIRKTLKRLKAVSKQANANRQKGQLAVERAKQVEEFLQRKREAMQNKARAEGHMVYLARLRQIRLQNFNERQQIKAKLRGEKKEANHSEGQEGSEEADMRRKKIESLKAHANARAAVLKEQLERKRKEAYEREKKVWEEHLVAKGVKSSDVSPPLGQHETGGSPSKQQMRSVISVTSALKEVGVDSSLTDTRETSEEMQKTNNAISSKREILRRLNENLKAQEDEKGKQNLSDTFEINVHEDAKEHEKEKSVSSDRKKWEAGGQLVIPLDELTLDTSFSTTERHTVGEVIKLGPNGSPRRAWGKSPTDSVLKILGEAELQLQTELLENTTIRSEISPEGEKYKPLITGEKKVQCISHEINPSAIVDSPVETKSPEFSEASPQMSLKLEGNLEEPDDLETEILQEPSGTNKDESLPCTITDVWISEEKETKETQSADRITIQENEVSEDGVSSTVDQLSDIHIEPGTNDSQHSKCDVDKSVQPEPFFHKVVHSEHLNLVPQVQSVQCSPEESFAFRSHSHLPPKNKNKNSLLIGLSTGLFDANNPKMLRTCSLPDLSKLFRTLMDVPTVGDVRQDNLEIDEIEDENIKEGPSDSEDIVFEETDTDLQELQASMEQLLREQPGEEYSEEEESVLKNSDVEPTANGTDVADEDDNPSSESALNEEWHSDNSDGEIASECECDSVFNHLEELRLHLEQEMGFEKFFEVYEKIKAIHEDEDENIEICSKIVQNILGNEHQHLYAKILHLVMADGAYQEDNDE

[4] = biological target: Serine/threonine-protein kinase PLK1 (Homo sapiens) (UniProt P53350); experiment: Inhibition of human PLK1 at 18.6 nM by HotSpot assay relative to control
[5] = biological target: Cyclin-dependent kinase 5/CDK5 activator 1 (Homo sapiens) (UniProt Q00535+Q15078); experiment: Inhibition of human CDK5/p35 at 18.6 nM by HotSpot assay relative to control; format: protein-complex assay
[6] = biological target: Serine/threonine-protein kinase 25 (Homo sapiens) (UniProt O00506); experiment: Inhibition of human YSK1 at 1.82 nM by HotSpot assay relative to control
[7] = biological target: Ribosomal protein S6 kinase beta-2 (Homo sapiens) (UniProt Q9UBS0); experiment: Inhibition of human RPS6KB2 at 1.82 nM by HotSpot assay relative to control
[8] = biological target: Tyrosine-protein kinase HCK (Homo sapiens) (UniProt P08631); experiment: Inhibition of human HCK at 1.82 nM by HotSpot assay relative to control
[9] = biological target: Mast/stem cell growth factor receptor Kit (Homo sapiens) (UniProt P10721); experiment: Inhibition of human c-Kit at 1.82 nM by HotSpot assay relative to control
[10] = biological target: Receptor-interacting serine/threonine-protein kinase 2 (Homo sapiens) (UniProt O43353); experiment: Inhibition of human RIPK2 at 1.82 nM by HotSpot assay relative to control
[11] = biological target: T3, Homeodomain-interacting protein kinase 4 (Homo sapiens) (UniProt Q8NE63); experiment: Inhibition of human HIPK4 at 1.82 nM by HotSpot assay relative to control
T3 sequence (whole entry): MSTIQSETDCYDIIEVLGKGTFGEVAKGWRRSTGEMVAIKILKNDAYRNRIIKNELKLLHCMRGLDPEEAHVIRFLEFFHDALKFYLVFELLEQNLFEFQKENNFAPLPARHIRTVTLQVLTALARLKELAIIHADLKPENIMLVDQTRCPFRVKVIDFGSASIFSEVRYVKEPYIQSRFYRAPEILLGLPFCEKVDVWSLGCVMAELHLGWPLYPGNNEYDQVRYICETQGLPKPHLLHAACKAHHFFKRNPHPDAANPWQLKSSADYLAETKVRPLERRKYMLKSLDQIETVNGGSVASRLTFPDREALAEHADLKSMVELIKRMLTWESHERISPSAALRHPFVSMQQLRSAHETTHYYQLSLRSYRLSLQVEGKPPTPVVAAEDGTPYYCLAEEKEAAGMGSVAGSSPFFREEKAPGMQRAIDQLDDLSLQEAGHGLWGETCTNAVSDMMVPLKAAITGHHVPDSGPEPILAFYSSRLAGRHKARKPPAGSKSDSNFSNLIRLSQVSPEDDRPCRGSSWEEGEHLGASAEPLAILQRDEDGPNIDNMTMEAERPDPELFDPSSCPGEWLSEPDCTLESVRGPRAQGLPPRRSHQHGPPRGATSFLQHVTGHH

Sequence of Serine/threonine-protein kinase 25 (Homo sapiens) (O00506 whole entry, looked up): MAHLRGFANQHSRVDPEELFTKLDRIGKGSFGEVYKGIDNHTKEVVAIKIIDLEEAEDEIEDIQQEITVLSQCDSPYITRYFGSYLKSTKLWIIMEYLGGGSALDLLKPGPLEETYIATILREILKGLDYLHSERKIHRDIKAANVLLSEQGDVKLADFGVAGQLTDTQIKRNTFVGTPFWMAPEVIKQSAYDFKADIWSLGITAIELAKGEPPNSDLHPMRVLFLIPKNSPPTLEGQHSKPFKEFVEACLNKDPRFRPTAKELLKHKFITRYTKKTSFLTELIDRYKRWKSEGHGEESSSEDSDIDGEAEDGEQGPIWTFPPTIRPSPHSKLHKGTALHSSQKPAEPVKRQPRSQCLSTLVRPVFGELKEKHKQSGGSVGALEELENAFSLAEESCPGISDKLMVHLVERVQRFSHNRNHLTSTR
Sequence of Cyclin-dependent kinase 5/CDK5 activator 1 (Homo sapiens) (Q00535 whole entry): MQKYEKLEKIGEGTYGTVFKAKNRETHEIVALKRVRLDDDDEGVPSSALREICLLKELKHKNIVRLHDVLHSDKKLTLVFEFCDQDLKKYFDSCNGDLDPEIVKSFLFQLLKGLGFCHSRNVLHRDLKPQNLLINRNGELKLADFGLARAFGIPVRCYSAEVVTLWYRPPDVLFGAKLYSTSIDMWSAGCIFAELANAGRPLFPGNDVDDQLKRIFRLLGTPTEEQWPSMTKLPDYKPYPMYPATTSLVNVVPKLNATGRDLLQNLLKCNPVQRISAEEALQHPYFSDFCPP
Sequence of Cyclin-dependent kinase 5/CDK5 activator 1 (Homo sapiens) (Q15078 99-307 partner limits assumed): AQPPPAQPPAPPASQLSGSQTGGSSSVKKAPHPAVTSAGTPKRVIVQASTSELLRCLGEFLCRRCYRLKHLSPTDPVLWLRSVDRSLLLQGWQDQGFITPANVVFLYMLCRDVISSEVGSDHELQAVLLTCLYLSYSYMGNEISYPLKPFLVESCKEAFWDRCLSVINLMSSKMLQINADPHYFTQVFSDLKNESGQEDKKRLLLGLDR
Sequence of Ribosomal protein S6 kinase beta-2 (Homo sapiens) (Q9UBS0 whole entry): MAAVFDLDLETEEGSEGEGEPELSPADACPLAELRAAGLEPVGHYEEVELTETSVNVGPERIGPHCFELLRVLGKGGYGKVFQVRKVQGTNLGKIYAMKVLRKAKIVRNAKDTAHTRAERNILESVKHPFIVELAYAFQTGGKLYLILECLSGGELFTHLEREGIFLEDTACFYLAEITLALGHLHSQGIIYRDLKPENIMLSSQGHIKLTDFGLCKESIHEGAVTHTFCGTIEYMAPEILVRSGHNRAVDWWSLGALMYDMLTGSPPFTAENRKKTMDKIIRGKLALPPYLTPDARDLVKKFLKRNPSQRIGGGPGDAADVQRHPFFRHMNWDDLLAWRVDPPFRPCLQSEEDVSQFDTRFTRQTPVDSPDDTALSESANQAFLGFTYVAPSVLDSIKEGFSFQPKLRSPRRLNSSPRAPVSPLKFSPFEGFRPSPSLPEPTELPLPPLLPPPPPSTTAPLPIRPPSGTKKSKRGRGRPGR
Sequence of Mast/stem cell growth factor receptor Kit (Homo sapiens) (P10721 whole entry): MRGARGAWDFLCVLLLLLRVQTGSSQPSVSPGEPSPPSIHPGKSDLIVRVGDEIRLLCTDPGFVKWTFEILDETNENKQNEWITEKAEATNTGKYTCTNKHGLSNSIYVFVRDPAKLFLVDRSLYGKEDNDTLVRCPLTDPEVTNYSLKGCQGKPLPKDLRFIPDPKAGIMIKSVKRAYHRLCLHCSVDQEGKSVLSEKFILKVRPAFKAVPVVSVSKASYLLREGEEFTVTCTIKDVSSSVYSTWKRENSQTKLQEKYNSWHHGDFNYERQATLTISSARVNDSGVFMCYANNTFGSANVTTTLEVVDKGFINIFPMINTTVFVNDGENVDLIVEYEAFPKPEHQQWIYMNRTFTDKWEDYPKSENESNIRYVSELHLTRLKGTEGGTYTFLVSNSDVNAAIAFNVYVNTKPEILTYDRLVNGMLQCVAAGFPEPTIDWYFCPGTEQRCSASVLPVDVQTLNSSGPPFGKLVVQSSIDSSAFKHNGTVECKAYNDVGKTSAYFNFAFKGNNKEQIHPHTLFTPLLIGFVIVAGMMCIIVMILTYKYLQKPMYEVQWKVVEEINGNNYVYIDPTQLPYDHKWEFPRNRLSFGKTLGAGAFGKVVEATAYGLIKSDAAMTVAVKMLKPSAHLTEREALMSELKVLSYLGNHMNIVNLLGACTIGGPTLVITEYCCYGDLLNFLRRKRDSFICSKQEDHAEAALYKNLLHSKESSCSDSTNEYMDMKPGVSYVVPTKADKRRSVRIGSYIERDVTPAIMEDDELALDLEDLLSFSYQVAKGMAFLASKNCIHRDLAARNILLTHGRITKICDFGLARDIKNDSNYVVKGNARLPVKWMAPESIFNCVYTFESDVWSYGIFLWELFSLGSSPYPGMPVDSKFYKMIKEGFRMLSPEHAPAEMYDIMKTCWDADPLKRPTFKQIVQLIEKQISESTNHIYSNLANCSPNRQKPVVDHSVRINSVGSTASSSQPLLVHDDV
Sequence of Tyrosine-protein kinase HCK (Homo sapiens) (P08631 2-526 limits assumed): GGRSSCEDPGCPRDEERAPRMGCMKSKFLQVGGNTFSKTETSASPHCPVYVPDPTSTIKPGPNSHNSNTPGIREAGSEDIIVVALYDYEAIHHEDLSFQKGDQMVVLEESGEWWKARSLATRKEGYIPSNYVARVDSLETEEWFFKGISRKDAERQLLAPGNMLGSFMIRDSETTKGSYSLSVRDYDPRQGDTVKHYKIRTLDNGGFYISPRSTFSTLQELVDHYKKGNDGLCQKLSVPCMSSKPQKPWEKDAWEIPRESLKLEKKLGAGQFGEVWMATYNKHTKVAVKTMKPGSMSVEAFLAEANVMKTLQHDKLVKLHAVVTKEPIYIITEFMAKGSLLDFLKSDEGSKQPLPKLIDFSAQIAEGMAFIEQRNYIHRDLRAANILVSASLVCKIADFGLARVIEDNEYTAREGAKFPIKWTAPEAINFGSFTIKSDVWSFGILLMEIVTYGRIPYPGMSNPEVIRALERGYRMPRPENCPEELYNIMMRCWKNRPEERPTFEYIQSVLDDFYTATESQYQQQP
Sequence of Receptor-interacting serine/threonine-protein kinase 2 (Homo sapiens) (O43353 whole entry): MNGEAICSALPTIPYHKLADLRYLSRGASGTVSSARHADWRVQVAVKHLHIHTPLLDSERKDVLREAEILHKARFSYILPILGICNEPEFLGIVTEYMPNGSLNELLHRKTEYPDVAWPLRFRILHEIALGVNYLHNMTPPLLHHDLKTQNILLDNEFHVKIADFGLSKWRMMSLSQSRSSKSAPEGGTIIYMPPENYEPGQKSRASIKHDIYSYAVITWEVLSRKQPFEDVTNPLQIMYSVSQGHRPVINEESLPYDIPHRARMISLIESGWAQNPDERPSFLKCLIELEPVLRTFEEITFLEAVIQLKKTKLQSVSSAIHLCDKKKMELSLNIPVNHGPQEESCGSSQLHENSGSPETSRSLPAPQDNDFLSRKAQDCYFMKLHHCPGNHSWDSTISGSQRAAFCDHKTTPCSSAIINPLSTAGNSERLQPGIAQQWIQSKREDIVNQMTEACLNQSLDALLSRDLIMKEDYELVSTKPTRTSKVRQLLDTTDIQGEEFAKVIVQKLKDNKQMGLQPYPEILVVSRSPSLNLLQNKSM
Sequence of Serine/threonine-protein kinase PLK1 (Homo sapiens) (P53350 whole entry): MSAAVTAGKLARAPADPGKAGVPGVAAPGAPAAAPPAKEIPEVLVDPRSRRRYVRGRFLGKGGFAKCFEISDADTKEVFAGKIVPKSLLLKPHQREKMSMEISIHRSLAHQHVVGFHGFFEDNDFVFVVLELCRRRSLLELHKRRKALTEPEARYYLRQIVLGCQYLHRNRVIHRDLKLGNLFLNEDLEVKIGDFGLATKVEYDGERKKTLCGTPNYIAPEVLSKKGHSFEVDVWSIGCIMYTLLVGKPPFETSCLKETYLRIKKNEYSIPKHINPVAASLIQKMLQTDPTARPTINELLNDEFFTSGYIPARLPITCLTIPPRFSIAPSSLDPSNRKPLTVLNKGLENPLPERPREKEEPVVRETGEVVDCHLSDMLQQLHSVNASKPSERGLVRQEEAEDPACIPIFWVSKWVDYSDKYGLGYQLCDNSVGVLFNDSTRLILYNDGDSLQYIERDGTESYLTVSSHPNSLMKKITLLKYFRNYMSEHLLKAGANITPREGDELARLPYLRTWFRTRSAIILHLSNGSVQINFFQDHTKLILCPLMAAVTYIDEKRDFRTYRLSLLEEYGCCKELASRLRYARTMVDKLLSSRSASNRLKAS
Sequence of Ribosomal protein S6 kinase beta-1 (Homo sapiens) (P23443 whole entry, looked up): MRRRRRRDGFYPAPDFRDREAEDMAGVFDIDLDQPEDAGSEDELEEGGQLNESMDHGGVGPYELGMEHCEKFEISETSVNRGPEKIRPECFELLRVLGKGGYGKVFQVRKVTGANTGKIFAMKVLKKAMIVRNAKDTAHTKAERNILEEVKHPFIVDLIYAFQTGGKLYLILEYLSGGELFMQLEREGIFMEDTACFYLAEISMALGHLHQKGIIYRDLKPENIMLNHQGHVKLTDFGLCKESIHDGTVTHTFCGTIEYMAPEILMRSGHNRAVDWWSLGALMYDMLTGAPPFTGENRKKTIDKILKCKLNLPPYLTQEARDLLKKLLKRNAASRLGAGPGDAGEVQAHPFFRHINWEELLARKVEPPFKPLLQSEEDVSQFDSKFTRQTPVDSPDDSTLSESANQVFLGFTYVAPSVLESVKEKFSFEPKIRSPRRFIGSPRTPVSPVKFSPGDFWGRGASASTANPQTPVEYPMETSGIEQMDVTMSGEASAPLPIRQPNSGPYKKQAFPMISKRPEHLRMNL

| inhibition [1] [%] | inhibition [2] [%] | inhibition [3] [%] | inhibition [4] [%] | inhibition [5] [%] | inhibition [6] [%] | inhibition [7] [%] | inhibition [8] [%] | inhibition [9] [%] | inhibition [10] [%] | inhibition [11] [%] | SMILES |
| --- | --- | --- | --- | --- | --- | --- | --- | --- | --- | --- | --- |
| -4.9 | 0.05 | 5.45 | -7.65 | -1.84 | – | – | – | – | – | – | C[C@]1(O)C[C@@H](c2nc(-c3ccc4ccc(-c5ccccc5)nc4c3)c3c(N)nccn32)C1 |
| – | – | – | – | – | 5.25 | -0.77 | 9.36 | 2.48 | 6.56 | -0.23 | C[C@@]1(C(=O)Nc2ccc(F)nc2)CCCN1c1nc(Nc2cc(C3CC3)n[nH]2)c2cccn2n1 |

— ChEMBL document CHEMBL5653615 (J Biol Chem, 2013)
